This passage reports microsomal CLint and half-life results from patent publication US11147802B2, “Substituted oxadiazole chemical compound and composition containing said chemical compound and use thereof” (Shenzhen TargetRx, Inc., priority 2016, dated 2021).

Data set [1] is described as follows: Metabolic stability in human liver microsomes. In kind it is in vitro ADME. The settings on record: pH 7.4, 1 μM compound, 0.5 mg/mL protein, 37° C.; for half-life at 1 μM: read-out: Human liver microsomes t1/2. On the procedure:
(§1) Metabolic Stability Evaluation
(§2) Experiments in microsomes: Human liver microsomes: 0.5 mg/mL, Xenotech; Rat liver microsomes: 0.5 mg/mL, Xenotech; Coenzyme (NADPH/NADH): 1 mM, Sigma Life Science; Magnesium chloride: 5 mM, 100 mM phosphate buffer (pH 7.4).
(§3) Preparation of stock solution: Powder of the example compound was accurately weighed and dissolved in DMSO to 5 mM.
(§4) Preparation of phosphate buffer (100 mM, pH7.4): A pre-formulated 0.5M potassium dihydrogen phosphate (150 mL) was mixed with 0.5M dibasic potassium phosphate (700 mL). The pH of the mixture was adjusted to 7.4 with 0.5M dibasic potassium phosphate solution. The mixture was diluted 5-fold with ultrapure water before use, and magnesium chloride was added to obtain a phosphate buffer (100 mM) containing 100 mM potassium phosphate, 3.3 mM magnesium chloride, pH 7.4.
(§5) A NADPH regeneration system solution (containing 6.5 mM NADP, 16.5 mM G-6-P, 3 U/mL G-6-PD, 3.3 mM magnesium chloride) was prepared and placed on wet ice prior to use.
(§6) Preparation of stop solution: acetonitrile solution containing 50 ng/mL propranolol hydrochloride and 200 ng/mL tolbutamide (internal standard). 25057.5 μL of phosphate buffer (pH 7.4) was taken into a 50 mL centrifuge tube, to which 812.5 μL human liver microsomes were added, and mixed to obtain a liver microsome dilution solution with a protein concentration of 0.625 mg/mL. 25057.5 μL of phosphate buffer (pH 7.4) was taken into a 50 mL centrifuge tube, to which 812.5 μL SD rat liver microsomes were added, and mixed to obtain a liver microsome dilution solution with a protein concentration of 0.625 mg/mL.
(§7) Incubation of the samples: The stock solution of the respective compound was respectively diluted to 0.25 mM with an aqueous solution containing 70% acetonitrile, and used as a working solution, ready for use. 398 μL of the dilution solution of human liver microsomes or rat liver microsome were added to a 96-well incubation plate (N=2), respectively, and 2 μL of 0.25 mM working solution was added and mixed.
(§8) Metabolic stability assay: 300 μL of pre-chilled stop solution was added to each well of a 96-well deep well plate and placed on ice as a stop plate. The 96 well incubation plate and NADPH regeneration system were placed in a 37° C. water bath box, shaken at 100 rpm and pre-incubated for 5 min. 80 μL of incubation solution was taken out from each well of the incubation plate and added to the stop plate, mixed, and replenished with 20 μL of NADPH regeneration system solution as a 0-min sample. 80 μL of NADPH regeneration system solution was added to each well of the incubation plate to start the reaction and start counting. […] Separately, 100 μL of the reaction solution was taken at 10, 30, and 90 min reaction, respectively, added to a stop plate, and vortexed for 3 minutes to terminate the reaction. The stop plate was centrifuged at 5000×g at 4° C. for 4 min. 100 μL of the supernatant was added to a 96-well plate to which 100 μL of distilled water was previously added, mixed, and analyzed by LC-MS/MS.
(§9) Data analysis: The peak areas of the corresponding compound and internal standard were detected by LC-MS/MS system, and the ratio of the peak area of the compound to the internal standard was calculated.

Data set [2] is described as follows: Metabolic stability in rat liver microsomes. It is filed as in vitro ADME. Conditions: Sprague-Dawley (SD), pH 7.4, 1 μM compound, 0.5 mg/mL protein, 37° C.; for half-life at 1 μM: read-out: Rat liver microsomes t1/2. As to the method: as §1, §2, §3, §4, §5, §6, §7, §8, §9

Regarding `[2H]C([2H])(CNc1nonc1/C(=N\c1ccc(F)c(Br)c1)NO)NS(N)(=O)=O` [Compound 41, 4-({2-[(sulfamoyl)amino]-2,2-d2-ethyl}amino)-N-(3-bromo-4-fluorophenyl)-N′-hydroxy-1,2,5-oxadiazole-3-carboximidamide], in data set [1], the microsomal CLint at 1 μM is less than 9.6 µL/min/mg and the half-life at 1 μM was more than 2.5 h. For the same compound, in data set [2], the microsomal CLint at 1 μM turned out to be 21 µL/min/mg and the half-life at 1 μM came out at 1.1 h.
Regarding `[2H]C([2H])(Nc1nonc1/C(=N\c1ccc(F)c(Br)c1)NO)C([2H])([2H])NS(N)(=O)=O` [Compound 47, 4-({2-[(sulfamoyl)amino]-1,1,2,2-d4-ethyl}amino)-N-(3-bromo-4-fluorophenyl)-N′-hydroxy-1,2,5-oxadiazole-3-carboximidamide], in data set [1], the microsomal CLint at 1 μM was less than 9.6 µL/min/mg and the half-life at 1 μM is more than 2.5 h. Further, in data set [2], the microsomal CLint at 1 μM was found to be 18.7 µL/min/mg and the half-life at 1 μM was determined as 1.23 h.
For `[2H]c1cc(/N=C(/NO)c2nonc2NC([2H])([2H])C([2H])([2H])NS(N)(=O)=O)cc(Br)c1F` [Compound 52], in data set [1], the microsomal CLint at 1 μM is less than 9.6 µL/min/mg and the half-life at 1 μM was more than 2.5 h. In addition, in data set [2], the microsomal CLint at 1 μM came out at 19.2 µL/min/mg and the half-life at 1 μM was 1.2 h.
With `[2H]c1c([2H])c(/N=C(/NO)c2nonc2NC([2H])([2H])C([2H])([2H])NS(N)(=O)=O)c([2H])c(Br)c1F` [Compound 71, 4-({2-[(sulfamoyl)amino]-1,1,2,2-d4-ethyl}amino)-N-(2,5,6-d3-3-bromo-4-fluoro-phenyl)-N′-hydroxy-1,2,5-oxadiazole-3-carboximidamide], in data set [1], the intrinsic metabolic clearance (microsomal CLint) at 1 μM was less than 9.6 µL/min/mg and the half-life at 1 μM is more than 2.5 h. Moreover, in data set [2], the microsomal CLint at 1 μM turned out to be 20.5 µL/min/mg and the half-life at 1 μM worked out at 1.13 h.
In the same order, the values of `[2H]c1cc(/N=C(/NO)c2nonc2NCCNS(N)(=O)=O)cc(Br)c1F` [Compound 32, 4-({2-[(sulfamoyl)amino]ethyl}amino)-N-(3-bromo-4-fluoro-5-d-phenyl)-N′-hydroxy-1,2,5-oxadiazole-3-carboximidamide] are less than 9.6 µL/min/mg, more than 2.5 h, 21.3 µL/min/mg and 1.08 h.
`[2H]c1cc(F)c(Br)c([2H])c1/N=C(/NO)c1nonc1NC([2H])([2H])C([2H])([2H])NS(N)(=O)=O` [Compound 57, 4-({2-[(sulfamoyl)amino]-1,1,2,2-d4-ethyl}amino)-N-(2,6-d2-3-bromo-4-fluoro-phenyl)-N′-hydroxy-1,2,5-oxadiazole-3-carboximidamide]: in data set [1], the microsomal CLint at 1 μM is less than 9.6 µL/min/mg and the half-life at 1 μM is more than 2.5 h.
Take `[2H]c1cc(F)c(Br)c([2H])c1/N=C(/NO)c1nonc1NCCNS(N)(=O)=O` [Compound 22]: the microsomal CLint at 1 μM in data set [1] was less than 9.6 µL/min/mg; in data set [2] it was 19.6 µL/min/mg. For the same compound, the results for the half-life at 1 μM in data set [1] and in data set [2] were more than 2.5 h and 1.18 h, respectively.
For `NS(=O)(=O)NCCNc1nonc1C(=NO)Nc1ccc(F)c(Br)c1` [Epacadostat, reference compound], in that order: 9.6 µL/min/mg, 20.1 µL/min/mg, 2.4 h and 1.15 h.
For `[2H]C([2H])(CNS(N)(=O)=O)Nc1nonc1/C(=N\c1ccc(F)c(Br)c1)NO` [Compound 11], in data set [1], the microsomal CLint at 1 μM is less than 9.6 µL/min/mg and the half-life at 1 μM is more than 2.5 h. In addition, in data set [2], the microsomal CLint at 1 μM was 18.9 µL/min/mg and the half-life at 1 μM came out at 1.22 h.
Turning to `[2H]c1c([2H])c(/N=C(/NO)c2nonc2NCCNS(N)(=O)=O)c([2H])c(Br)c1F` [Compound 66], in data set [1], the microsomal CLint at 1 μM was less than 9.6 µL/min/mg and the half-life at 1 μM is more than 2.5 h. Besides, in data set [2], the microsomal CLint at 1 μM was 17.5 µL/min/mg and the half-life at 1 μM came to 1.32 h.
For `[2H]c1c([2H])c(/N=C(/NO)c2nonc2NCC([2H])([2H])NS(N)(=O)=O)c([2H])c(Br)c1F` [Compound 76, 4-({2-[(sulfamoyl)amino]-1,1-d2-ethyl}amino)-N-(2,5,6-d3-3-bromo-4-fluoro-phenyl)-N′-hydroxy-1,2,5-oxadiazole-3-carboximidamide], in that order: less than 9.6 µL/min/mg, more than 2.5 h, 22.6 µL/min/mg and 1.02 h.
In the same order, the values of `[2H]c1cc(F)c(Br)c([2H])c1/N=C(/NO)c1nonc1NC([2H])([2H])CNS(N)(=O)=O` [Compound 81, 4-({2-[(sulfamoyl)amino]-1,1-d2-ethyl}amino)-N-(2,6-d2-3-bromo-4-fluoro-phenyl)-N′-hydroxy-1,2,5-oxadiazole-3-carboximidamide] are less than 9.6 µL/min/mg, more than 2.5 h, 18.5 µL/min/mg and 1.25 h.
